From patent US12492200B2, “NLRP3 modulators” (INNATE TUMOR IMMUNITY, INC., priority 2020, dated 2025)
pEC50: −log10 of the molar value.

Target: T1, NLRP3 (Homo sapiens, UniProt Q96P20)
T1 construct: host or cells: PMA-differentiated THP-1 cells
Test: Measurement of IL-1β production (NLRP3 hIL1β EC50), PMA-differentiated THP-1 cells
Type: cell-based
Conditions: human IL-1β production; assayed using one or more of the described procedures
Procedure: THP-1 cells were purchased from the American Type Culture Collection and sub-cultured according to instructions from the supplier. Prior to experiments, cells were cultured in RPMI 1640 containing 10% heat inactivated FBS, penicillin (100 units/ml) and streptomycin (100 μg/ml), and maintained in log phase prior to experimental setup. Prior to the experiment THIP-1 were treated with PMA (Phorbol 12-myristate 13-acetate) (10 μg/ml) for 24 hours. The day of the experiment the media was removed and attaching cells were treated with trypsin for 2 minutes, cells were then collected, washed with PBS (phosphate buffer saline), spin down, resuspended in 2% heat inactivated FBS with RPMI at a concentration of 1×10^6 cells/ml, and 100 μl was plated in a 96 well plate. Compounds were dissolved in dimethyl sulfoxide (DMSO) and added to the culture medium to achieve desired concentration (e.g. 100, 30, 10, 3, 1, 0.3 or 0.1 μM). Cells were incubated with compounds for 4 hours. Cell free supernatant was collected and the production of IL-1β was evaluated by ELISA. A vehicle only control was run concurrently with each experiment. Final DMSO concentration was 1%.
THP-1 cells were purchased from the American Type Culture Collection and sub-cultured according to instructions from the supplier. Prior to experiments, cells were cultured in RPMI 1640 containing 10% heat inactivated FBS, penicillin (100 units/ml), streptomycin (100 μg/ml), HEPES (10 mM) and sodium pyruvate (1 mM) and maintained in log phase prior to experimental setup. Prior to the experiment, THP-1 cells were treated with PMA (Phorbol 12-myristate 13-acetate) (20 μg/ml) overnight. The day of the experiment, the media was removed and attached cells were treated with trypsin for 2 minutes, cells were then collected, washed with PBS (phosphate buffer saline), pelleted by centrifugation and resuspended in 2% heat inactivated FBS with RPMI at a concentration of 50,000 cells/well in a 384 well plate. Cell free supernatant was collected and the production of IL-1β was evaluated by ELISA. Compounds were dissolved in dimethyl sulfoxide (DMSO) and added to the culture medium to achieve desired concentration (e.g. 100, 30, 10, 3, 1, 0.3 or 0.1 μM). Cells were incubated with compounds for 2 hours. A vehicle only control was run concurrently with each experiment. Final DMSO concentration was 1%.
Serial dilutions of compounds in DMSO were added to low volume 384 well plates at 100 nl/well using an ECHO 550 acoustic dispenser (Labcyte) to achieve final starting concentration of 10 μM in assay.
THP-1 cells in RPMI (Gibco, 11875) media with 10% FBS at a density of 1×10^6 cell/ml in a T175 flask were treated with a final concentration of phorbol 12-myristate 13-acetate (PMA) (Sigma,P1585) of 50 ng/ml overnight at 37° C. at 5% CO2 for differentiation. Cells were harvested the next day after rinsing well with dPBS using 0.5% trypsin. A cell solution was prepared of 1×10^6 cells/ml for 50,000 cells in 50 μl/well in RPMI media with 2% FBS. Cells were plated using a multichannel pipette onto the compound dilutions in Greiner, 384 well, black clear bottom tissue culture treated plates (781090). The plates were incubated in 37° C. incubator at 5% CO2 for 2 hours.
After the 2 hour incubation, the cell plates were spun in the centrifuge for 5 minutes at 1200 rpm. Using the Felix (CyBio), 8 μl of the supernatant was transferred to 384 well, low volume, white proxy plates. (Perkin Elmer, 6008230). A human IL1beta hTRF kit was used to analyze the supernatant (CISBIO, 62HIL1BPEG). The kit instructions were followed for preparing the IL1Beta standard curve and then the antibodies from the kit were diluted 1:40 rather than 1:20 as kit instructed. Once combined, the antibodies were added across the plates, 5 μl/well. The plates were sealed and incubated at 4° C. overnight. The plates were then read on the Perkin Elmer EnVision at 665/615 nm using the hTRF laser.

T1 sequence (Q96P20 whole entry): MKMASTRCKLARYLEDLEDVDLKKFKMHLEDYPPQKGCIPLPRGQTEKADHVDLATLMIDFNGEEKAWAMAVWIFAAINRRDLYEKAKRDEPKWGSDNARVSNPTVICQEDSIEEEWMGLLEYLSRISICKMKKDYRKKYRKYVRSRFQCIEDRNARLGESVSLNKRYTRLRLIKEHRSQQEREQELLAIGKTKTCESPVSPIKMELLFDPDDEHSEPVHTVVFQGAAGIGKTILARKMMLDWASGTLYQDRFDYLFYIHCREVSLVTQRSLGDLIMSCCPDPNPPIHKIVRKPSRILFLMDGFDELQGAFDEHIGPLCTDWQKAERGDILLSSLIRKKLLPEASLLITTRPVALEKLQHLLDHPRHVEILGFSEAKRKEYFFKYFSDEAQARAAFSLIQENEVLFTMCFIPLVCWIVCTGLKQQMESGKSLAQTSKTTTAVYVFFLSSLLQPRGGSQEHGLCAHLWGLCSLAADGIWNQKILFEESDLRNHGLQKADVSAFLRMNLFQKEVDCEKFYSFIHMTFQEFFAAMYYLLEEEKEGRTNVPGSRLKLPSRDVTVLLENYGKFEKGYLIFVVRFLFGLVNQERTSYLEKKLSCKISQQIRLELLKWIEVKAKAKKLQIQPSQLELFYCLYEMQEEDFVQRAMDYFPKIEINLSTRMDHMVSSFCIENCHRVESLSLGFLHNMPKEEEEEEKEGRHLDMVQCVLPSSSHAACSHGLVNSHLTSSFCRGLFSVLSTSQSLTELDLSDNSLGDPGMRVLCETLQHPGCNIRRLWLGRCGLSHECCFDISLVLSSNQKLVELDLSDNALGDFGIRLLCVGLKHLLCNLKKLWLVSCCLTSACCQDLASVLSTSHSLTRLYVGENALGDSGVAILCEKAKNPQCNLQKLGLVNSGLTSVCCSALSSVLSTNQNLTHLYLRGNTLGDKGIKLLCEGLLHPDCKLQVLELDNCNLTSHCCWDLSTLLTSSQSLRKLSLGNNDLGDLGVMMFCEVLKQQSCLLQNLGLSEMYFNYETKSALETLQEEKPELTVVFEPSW

SMILES | pEC50
Nc1nc2cc(-c3cc[nH]n3)ccc2c2[nH]c([C@H]3CCCNC3)nc12 [Example 2, (S)-2-(Piperidin-3-yl)-7-(1H-pyrazol-3-yl)-1H-imidazo[4,5-c]quinolin-4-amine] | 6.29
CCC(=O)N1CCC[C@H](c2nc3c(N)nc4cc(-c5cc[nH]n5)ccc4c3n2CC)C1 [Example 4, (S)-1-(3-(4-Amino-1-ethyl-7-(1H-pyrazol-3-yl)-1H-imidazo[4,5-c]quinolin-2-yl)piperidin-1-yl)propan-1-one] | 6.59
CCC(=O)N1CCC[C@H](c2nc3c(N)nc4cc(-c5cc[nH]n5)ccc4c3n2C(C)C)C1 [Example 5, (S)-1-(3-(4-Amino-1-isopropyl-7-(1H-pyrazol-3-yl)-1H-imidazo[4,5-c]quinolin-2-yl)piperidin-1-yl)propan-1-one] | 6.48
Nc1nc2cc(-c3cc[nH]n3)ccc2c2[nH]c([C@@H]3CCCN(C(=O)C4CCC4)C3)nc12 [Example 8, (R)-(3-(4-Amino-7-(1H-pyrazol-3-yl)-1H-imidazo[4,5-c]quinolin-2-yl)piperidin-1-yl)(cyclobutyl)methanone] | 5.72
CC(C)(C)OC(=O)N1CCC(c2nc3c(N)nc4cc(-c5cc[nH]n5)ccc4c3[nH]2)CC1 [Example 12, tert-Butyl 4-(4-amino-7-(1H-pyrazol-3-yl)-1H-imidazo[4,5-c]quinolin-2-yl)piperidine-1-carboxylate] | 5.31
Nc1nc2cc(-c3cc[nH]n3)ccc2c2[nH]c(C[C@H]3CCCN3)nc12 [Example 14, (R)-7-(1H-pyrazol-3-yl)-2-(pyrrolidin-2-ylmethyl)-1H-imidazo[4,5-c]quinolin-4-amine] | 6.96
CC(C)(C)OC(=O)N1CCC[C@H]1Cc1nc2c(N)nc3cc(-c4cc[nH]n4)ccc3c2[nH]1 [Example 16, tert-Butyl (S)-2-((4-amino-7-(1H-pyrazol-3-yl)-1H-imidazo[4,5-c]quinolin-2-yl)methyl)pyyrolidine-1-carboxylate] | 5.43
Nc1nc2cc(-c3cc[nH]n3)ccc2c2[nH]c(C[C@@H]3CCCN3)nc12 [Example 17, (S)-7-(1H-pyrazol-3-yl)-2-(pyrrolidin-2-ylmethyl)-1H-imidazo[4,5-c]quinolin-4-amine] | 5.92
COC(=O)N1CCC(Cc2nc3c(N)nc4cc(-c5cc[nH]n5)ccc4c3[nH]2)C1 (stereo not drawn) [Example 19, Methyl 3-((4-amino-7-(1H-pyrazol-3-yl)-1H-imidazo[4,5-c]quinolin-2-yl)methyl)pyrrolidine-1-carboxylate] | 5.80
CCN1CCC(Cc2nc3c(N)nc4cc(-c5cc[nH]n5)ccc4c3[nH]2)C1 (stereo not drawn) [Example 21, 2-((1-Ethylpyrrolidin-3-yl)methyl)-7-(1H-pyrazol-3-yl)-1H-imidazo[4,5-c]quinolin-4-amine] | 6.06
CC(=O)N1CCC[C@H](c2nc3c(N)nc4cc(-c5cc[nH]n5)ccc4c3[nH]2)C1 [Example 24] | 6.11
CCC(=O)N1CCC[C@H](c2nc3c(N)nc4cc(-c5cc[nH]n5)ccc4c3[nH]2)C1 [Example 25] | 5.96
CC(C)C(=O)N1CCC[C@H](c2nc3c(N)nc4cc(-c5cc[nH]n5)ccc4c3[nH]2)C1 [Example 26] | 5.92
Nc1nc2cc(-c3cc[nH]n3)ccc2c2[nH]c([C@H]3CCCN(C(=O)C4CC4)C3)nc12 [Example 29] | 5.62
Nc1nc2cc(-c3cc[nH]n3)ccc2c2[nH]c([C@H]3CCCN(C(=O)C4CCC4)C3)nc12 [Example 30] | 6.17
Nc1nc2cc(-c3cc[nH]n3)ccc2c2[nH]c([C@H]3CCCN(C(=O)c4ccccc4)C3)nc12 [Example 31] | 5.82
Nc1nc2cc(-c3cc[nH]n3)ccc2c2[nH]c([C@H]3CCCN(C(=O)C4CC(F)(F)C4)C3)nc12 [Example 32] | 5.60
COCC(=O)N1CCC[C@H](c2nc3c(N)nc4cc(-c5cc[nH]n5)ccc4c3[nH]2)C1 [Example 34] | 5.66
Nc1nc2cc(-c3cc[nH]n3)ccc2c2[nH]c([C@H]3CCCN(C(=O)C4(C(F)(F)F)CC4)C3)nc12 [Example 36] | 5.55
N#CC1(C(=O)N2CCC[C@H](c3nc4c(N)nc5cc(-c6cc[nH]n6)ccc5c4[nH]3)C2)CCC1 [Example 37] | 5.33
CCn1c([C@H]2CCCN(C(C)=O)C2)nc2c(N)nc3cc(-c4cc[nH]n4)ccc3c21 [Example 41] | 6.11
CCCC(=O)N1CCC[C@H](c2nc3c(N)nc4cc(-c5cc[nH]n5)ccc4c3n2CC)C1 [Example 42] | 6.66
CCn1c([C@H]2CCCN(C(=O)CC(C)C)C2)nc2c(N)nc3cc(-c4cc[nH]n4)ccc3c21 [Example 43] | 6.68
CCn1c([C@H]2CCCN(C(=O)C3(C#N)CC3)C2)nc2c(N)nc3cc(-c4cc[nH]n4)ccc3c21 [Example 45] | 6.96

The remaining lines, values ahead:

pEC50 | SMILES
5.76 | Nc1nc2cc(-c3cc[nH]n3)ccc2c2[nH]c([C@@H]3CCCNC3)nc12 [Example 7, (R)-2-(Piperidin-3-yl)-7-(1H-pyrazol-3-yl)-1H-imidazo[4,5-c]quinolin-4-amine]
5.18 | CCC(=O)N1CC[C@H](c2nc3c(N)nc4cc(-c5cc[nH]n5)ccc4c3[nH]2)C1 [Example 9, (S)-1-(3-(4-Amino-7-(1H-pyrazol-3-yl)-1H-imidazo[4,5-c]quinolin-2-yl)pyrrolidin-1-yl)propan-1-one]
6.12 | CC(C)(C)OC(=O)N1CC[C@@H](c2nc3c(N)nc4cc(-c5cc[nH]n5)ccc4c3[nH]2)C1 [Example 10, tert-Butyl (R)-3-(4-amino-7-(1H-pyrazol-3-yl)-1H-imidazo[4,5-c]quinolin-2-yl)pyrrolidine-1-carboxylate]
5.15 | CC(C)C(=O)N1CC[C@@H](c2nc3c(N)nc4cc(-c5cc[nH]n5)ccc4c3[nH]2)C1 [Example 11, (R)-1-(3-(4-Amino-7-(1H-pyrazol-3-yl)-1H-imidazo[4,5-c]quinolin-2-yl)pyrrolidin-1-yl)-2-methylpropan-1-one]
5.82 | CC(C)(C)OC(=O)N1CCC[C@@H]1Cc1nc2c(N)nc3cc(-c4cc[nH]n4)ccc3c2[nH]1 [Example 13, tert-Butyl (R)-2-((4-amino-7-(1H-pyrazol-3-yl)-1H-imidazo[4,5-c]quinolin-2-yl)methyl)pyrolidine-1-carboxylate]
5.74 | CCC(=O)N1CCC[C@@H]1Cc1nc2c(N)nc3cc(-c4cc[nH]n4)ccc3c2[nH]1 [Example 15, (R)-1-(2-((4-Amino-7-(1H-pyrazol-3-yl)-1H-imidazo[4,5-c]quinolin-2-yl)methyl)pyrrolidin-1-yl)propane-1-one]
5.31 | CC(=O)N1CCC(Cc2nc3c(N)nc4cc(-c5cc[nH]n5)ccc4c3[nH]2)C1 (stereo not drawn) [Example 20, 1-(3-((4-Amino-7-(1H-pyrazol-3-yl)-1H-imidazo[4,5-c]quinolin-2-yl)methyl)pyrrolidin-1-yl)ethan-1-one]
5.85 | CCN1CCC(Cc2nc3c(N)nc4cc(-n5cccn5)ccc4c3[nH]2)C1 (stereo not drawn) [Example 22, 2-((1-Ethylpyrrolidin-3-yl)methyl)-7-(1H-pyrazol-1-yl)-1H-imidazo[4,5-c]quinolin-4-amine]
6.05 | CCCC(=O)N1CCC[C@H](c2nc3c(N)nc4cc(-c5cc[nH]n5)ccc4c3[nH]2)C1 [Example 27]
6.00 | Nc1nc2cc(-c3cc[nH]n3)ccc2c2[nH]c([C@H]3CCCN(C(=O)C4CC4(F)F)C3)nc12 (stereo partly drawn) [Example 33]
5.74 | COCCC(=O)N1CCC[C@H](c2nc3c(N)nc4cc(-c5cc[nH]n5)ccc4c3[nH]2)C1 [Example 35]
6.66 | CCn1c([C@H]2CCCN(C(=O)C3CCC3)C2)nc2c(N)nc3cc(-c4cc[nH]n4)ccc3c21 [Example 44]
